Data published in patent US20250032417A1, “LYOPHILIZED METOLAZONE FORMULATION FOR PARENTERAL ADMINISTRATION” (Hyloris Developments SA, priority 2023, published 2025).
In brackets after ≈: the same amount, converted by molar mass. Several values for one entry are separate records, joined by “and”; a condition that tells them apart may be missing. Identical values can stand only once.

What was measured:
[1] = Diluent selection study: solubility of metolazone in diluent mixtures; format: physicochemical
Experimental: The diluent selection study was conducted to select the best diluent combination for metolazone. The following components were evaluated in combination with phosphate buffer to check the solubility of metolazone and to observe the solution clarity.
Procedure for Example no ITT-1 to 111-5: An excess amount of drug substance PSD (particle size distribution) 10 micron (60 mg) was added to the 20 mL diluent mixtures specified in Ex. III-1 to II-5 so that the theoretical concentration was 3 mg/mL. After drug addition, these samples were sonicated up to 4 hr using a sonicator at room temperature. Solution clarity and quantitative solubility were observed.

[2] = Tertiary butyl alcohol-water solubility trials (visual); format: physicochemical
Experimental: Before initiating solvent based Lyophilization trials, a detail assessment of metolazone solubility in Water+TBA (Tertiary butyl alcohol) was carried out to identify optimum ratio of TBA:Water.

[3] = 25° C.; cited from earlier work
[4] = Saturation solubility of metolazone in TBA:water ratios; format: physicochemical; settings: for solubility: aqueous with cosolvent or surfactant or cyclodextrin, thermodynamic from solid
Experimental: Saturation solubility study of metolazone was conducted in different water to tertiary butyl alcohol ratios ranging from 20-40% of TBA and 80-60% water. The study was conducted in triplicate.

**Q.** For Cc1ccccc1N1C(=O)c2cc(S(N)(=O)=O)c(Cl)cc2NC1C (centres unmarked) [Metolazone, 7-chloro-1,2,3,4-tetrahydro-2-methyl-3-(2-methylphenyl)-4-oxo-6-quinazoline sulfonamide], which solubility ([1]; 40% PEG in buffer, aqueous with cosolvent or surfactant or cyclodextrin, thermodynamic from solid, 40% PEG in all tested buffers, API with particle size D90<10 microns, read-out: solubility) is on record?
**A.** Its solubility is over 1200 µg/mL.

**Q.** And the solubility ([1]; 40% PEG-400 and 0.4% Kolliphor HS-15 in Tris buffer, pH 7.5, aqueous with cosolvent or surfactant or cyclodextrin, thermodynamic from solid, Ex: III-4, 031D: 40% PEG-400 + Kolliphor HS-15 0.4% + Tris buffer pH 7.5, read-out: Solubility)?
**A.** The solubility was 2310 µg/mL.

**Q.** What about the solubility ([1]; 40% PEG-400 and 0.4% Kolliphor HS-15 in phosphate buffer, pH 7.5, aqueous with cosolvent or surfactant or cyclodextrin, thermodynamic from solid, Ex: III-3, 031C: 40% PEG-400 + Kolliphor HS-15 0.4% + Phosphate buffer pH 7.5, read-out: Solubility) of the same molecule?
**A.** Its solubility is 2160 µg/mL.

**Q.** What about the solubility ([1]; 40% PEG-400 in Tris buffer, pH 7.5, aqueous with cosolvent or surfactant or cyclodextrin, thermodynamic from solid, Ex: III-2, 031B: 40% PEG-400 + Tris buffer pH 7.5, read-out: Solubility) of the same molecule?
**A.** The solubility was 1280 µg/mL.

**Q.** What about the solubility ([1]; 40% PEG-400 in phosphate buffer, pH 7.5, aqueous with cosolvent or surfactant or cyclodextrin, thermodynamic from solid, Ex: III-1, 031A: 40% PEG-400 + Phosphate buffer pH 7.5, API PSD 10 micron, sonicated up to 4 hr, room temperature, read-out: Solubility) of the same molecule?
**A.** The solubility was 1800 µg/mL.

**Q.** What about the “solubility” value ([1]; Ex: III-1, 031A: 40% PEG-400 + Phosphate buffer pH 7.5, API PSD 10 micron, sonicated up to 4 hr, room temperature) of the same molecule?
**A.** Its value is 1862 µg/mL.

**Q.** What about the solubility ([1]; tertiary butyl alcohol/water for injection mixture, aqueous with cosolvent or surfactant or cyclodextrin, thermodynamic from solid, Ex: III-5, 031E: 50% Tertiary butyl alcohol and 50% Water for injection, read-out: Solubility) of the same molecule?
**A.** The solubility was 3120 µg/mL.

**Q.** What about the Observations ([2]; Trial 1: WFI, 5.04 mg metolazone, Q.S. to 10 mL) of the same molecule?
**A.** The Observations was “Insoluble”.

**Q.** What about the Observations ([2]; Trial 2: 20% TBA, 10.08 mg metolazone, Q.S. to 20 mL) of the same molecule?
**A.** The Observations was “opalescent”.

**Q.** And the Observations ([2]; Trial 3: 30% TBA, 15.12 mg metolazone, Q.S. to 20 mL)?
**A.** The Observations was “clear”.

**Q.** And the Observations ([2]; Trial 4: 40% TBA, 30.24 mg metolazone, Q.S. to 20 mL)?
**A.** The Observations was “clear”.

**Q.** And the Observations ([2]; Trial 5: 50% TBA, 30.24 mg metolazone, Q.S. to 20 mL)?
**A.** The Observations was “clear”.

**Q.** And the Observations ([2]; Trial 6: 60% TBA, 30.24 mg metolazone, Q.S. to 20 mL)?
**A.** Its Observations is “clear”.

**Q.** What about the Observations ([2]; Trial 7: 30% TBA, 20.16 mg metolazone, Q.S. to 20 mL) of the same molecule?
**A.** Its Observations is “clear”.

**Q.** And the solubility in ethanol [3]?
**A.** Its solubility in ethanol is 9000 µg/mL (≈ 24.6 mM).

**Q.** What about the “Solubility of each trial” value ([4]; 028A: 20% Tertiary butyl alcohol and 80% water mixture [20:80]) of the same molecule?
**A.** Its value is 289 µg/mL and 281 µg/mL.

**Q.** What about the “Solubility of each trial” value ([4]; 028B: 30% Tertiary butyl alcohol and 70% water mixture [30:70]) of the same molecule?
**A.** Its value is 948 µg/mL and 1044 µg/mL.

**Q.** And the “Solubility of each trial” value ([4]; 028C: 40% Tertiary butyl alcohol and 60% water mixture [40:60])?
**A.** Its value is 2122 µg/mL and 2025 µg/mL.

**Q.** What about the “slope of metolazone solubility versus TBA fraction in solvent” value ([4]; FIG. 4) of the same molecule?
**A.** The value was 0.0913.

**Q.** What about the solubility ([4]; tertiary butyl alcohol/water mixture, 028A: 20% Tertiary butyl alcohol and 80% water mixture [20:80], read-out: Average solubility) of the same molecule?
**A.** Its solubility is 279 µg/mL.

**Q.** What about the solubility ([4]; tertiary butyl alcohol/water mixture, 028A: 20% Tertiary butyl alcohol and 80% water mixture [20:80], read-out: Solubility of each trial) of the same molecule?
**A.** The solubility was 267 µg/mL.

**Q.** And the solubility ([4]; tertiary butyl alcohol/water mixture, 028B: 30% Tertiary butyl alcohol and 70% water mixture [30:70], read-out: Average solubility)?
**A.** Its solubility is 1010 µg/mL.

**Q.** What about the solubility ([4]; tertiary butyl alcohol/water mixture, 028B: 30% Tertiary butyl alcohol and 70% water mixture [30:70], read-out: Solubility of each trial) of the same molecule?
**A.** Its solubility is 1050 µg/mL.

**Q.** What about the solubility ([4]; tertiary butyl alcohol/water mixture, 028C: 40% Tertiary butyl alcohol and 60% water mixture [40:60], read-out: Average solubility) of the same molecule?
**A.** Its solubility is 2110 µg/mL.

**Q.** And the solubility ([4]; tertiary butyl alcohol/water mixture, 028C: 40% Tertiary butyl alcohol and 60% water mixture [40:60], read-out: Solubility of each trial)?
**A.** Its solubility is 2170 µg/mL.

**Q.** And the solubility ([4]; tertiary butyl alcohol/water mixtures, TBA:water in the ratio of 30:70 to 40:60, read-out: solubility in solvent (TBA:water))?
**A.** The solubility was over 1000 µg/mL.
